Measurements as given in article PMC10527014 (Antiviral research, 2023).

Tested on: RD
Assay: Cytotoxicity
Format: cell-based, human
Conditions: read-out: 50% Cytotoxic concentration CC50, line of ma-EV-D68

Structure (SMILES): Cc1cc(-c2noc(C(F)(F)F)n2)ccc1OCCCc1cc(C(=O)N(C)C)no1 [compound 11526092, 3-(3-methyl-4-(3-(3-N,N-dimethylcarbamoyl-isoxazol-5-yl)propoxy)phenyl)-5-trifluoromethyl-1,2,4-oxadiazole]
- CC50: 9.4 µM
